Source: patent US20080051429A1, “USE OF 4-AMINO-PIPERIDINES FOR TREATING SLEEP DISORDERS” (priority 2006, published 2008)

Tested on: healthy volunteers
Assay: Polysomnography (PSG) sleep study, double-blind, placebo-controlled
Assay type: in vivo, human
Description: A double-blind, placebo-controlled study involving 45 healthy volunteers ranging in age from 40 to 64 was conducted. […] All subjects underwent a two-night screening and baseline PSG evaluation. Additional PSG measurements were performed on the evening of study days 1 and 13. The subjects also completed a Continuous Performance Test (CPT) to assess the potential impact on daytime functioning. […] Of the 45 subjects, 20 of them also underwent a positron emission tomography (PET) study to measure 5-HT2A brain receptor occupancy.
During an assessment period, participants stayed overnight in the clinic for […] from Day −1 to Day 2 and one night from Day 13 to Day 14. Participants underwent a one-night PSG evaluation on the evening of Day 1, following the first dose of treatment and a final one-night PSG evaluation on the evening of Day 13. Between Day 3 and Day 12, participants were at home.
Polysomnographic recordings were performed from 23:00 to 07:00 on the following day.
The drug was dispensed as a solution (in vials) per os (p.o.), in a double-blind fashion as determined by the randomization schedule. The content of the vials was completely consumed followed by the consumption of one vial of water.
Data Analysis: A multivariate analyses of variance (MANOVA) with 5 clusters of sleep parameters as dependent variables (sleep continuity architecture and profile parameters for the visual analysis, and NREM and REM parameters for the spectral power analysis as shown in Table 1) was conducted initially. Change from baseline to the last day of drug administration was assessed by an analysis of covariance with repeated measures (ANCOVA®), with the baseline variables as covariates, to detect group differences (drug at each dose versus placebo) in the PSG sleep findings. For each ANCOVA, two main effects (Treatment, 4 levels, and Study Day, 2 levels) and their interaction were analyzed. Drug to placebo contrasts were calculated as a whole (Day 1 and Day 13 combined) as well as separately for each Study Day. Change from baseline to the last day of drug administration, by group, on the results of the CPT was also analyzed. Additional pharmacodynamic analysis, including the electrographic results obtained on Study Day 1, was performed. SAS® Version 8.2 was used for non-pharmacokinetic parameters and WinNonLin V4.0 was used to compute all pharmacokinetic parameters.

With `CC(C)COc1ccc(CNC(=O)N(Cc2ccc(F)cc2)C2CCN(C)CC2)cc1` [N-(1-methylpiperidin-4-yl)-N-(4-fluorophenylmethyl)-N′-(4-(2-methylpropyloxy)phenylmethyl)carbamide] the “Change in Slow Wave Sleep From Baseline” value (1 mg, Day 1) was 6.4 min, the “Change in Slow Wave Sleep From Baseline, Percentage” value (shortened to “Change … Percentage”) (1 mg, Day 1) was 10% and the “Duration (min) of wake after sleep onset” value (1 mg, Day 1) was 47.67 min. The “Number of awakenings after sleep onset” value (1 mg, Day 1) was 20.22, the SWS duration (1 mg, Day 1) was 69.78 min and the “Change in Slow Wave Sleep From Baseline” value (1 mg, Day 13) was 5.4 min. The “Change … Percentage” value (1 mg, Day 13) was 9%, the “Duration (min) of wake after sleep onset” value (1 mg, Day 13) was 40.06 min and the “Number of awakenings after sleep onset” value (1 mg, Day 13) was 20.78. The SWS duration (1 mg, Day 13) was 68.78 min, the NREM sleep % (2.5 mg, C) was “↑ (↑, <.05)” and the NREM sleep duration (2.5 mg, C) was “↑ (↑, <.05)”. The “SWS 2nd third” value (2.5 mg, C) was “↑↑ (↑↑, <.01)”, the SWS % (2.5 mg, C) was “↑↑ (↑↑, <.01)” and the “Stage 3%” value (2.5 mg, C) was “↑ (↑, <.05)”. For the same molecule, the “Stage 3 duration” value (2.5 mg, C) was “↑ (↑, <.05)”, the “Stage 4%” value (2.5 mg, C) was “↑ (↑, <.05)” and the “Stage 4 duration” value (2.5 mg, C) was “↑ (↑, <.05)”. The “SWS 2nd third” value (2.5 mg, D1) was “↑ (↑, <.05)”, the SWS % (2.5 mg, D1) was “↑ (↑, <.05)” and the “Stage 3%” value (2.5 mg, D1) was “↑ (↑, <.05)”. The “Stage 3 duration” value (2.5 mg, D1) was “↑ (↑, <.05)”, the NREM sleep % (2.5 mg, D13) was “↑↑ (↑↑, <.01)” and the NREM sleep duration (2.5 mg, D13) was “↑ (↑, <.05)”. For the same molecule, the “Change in Slow Wave Sleep From Baseline” value (2.5 mg, Day 1) was 21.8 min, the “Change … Percentage” value (2.5 mg, Day 1) was 40% and the “Duration (min) of wake after sleep onset” value (2.5 mg, Day 1) was 51.00 min. The “Number of awakenings after sleep onset” value (2.5 mg, Day 1) was 21.44, the SWS duration (2.5 mg, Day 1) was 75.83 min and the “Change in Slow Wave Sleep From Baseline” value (2.5 mg, Day 13) was 19.6 min. For the same molecule, the “Change … Percentage” value (2.5 mg, Day 13) was 36%, the “Duration (min) of wake after sleep onset” value (2.5 mg, Day 13) was 30.44 min and the “Number of awakenings after sleep onset” value (2.5 mg, Day 13) was 19.78. The SWS duration (2.5 mg, Day 13) was 73.61 min, the “SWS 1st third” value (5 mg, C) was “↑↑ (↑↑, <.01)” and the “SWS 2nd third” value (5 mg, C) was “↑↑ (↑↑, <.01)”. For the same molecule, the SWS % (5 mg, C) was “↑↑ (↑↑, <.01)”, the “Stage 1%” value (5 mg, C) was “↓ (↓, <.05)” and the “Stage 2%” value (5 mg, C) was “↓ (↓, <.05)”. For the same molecule, the “Stage 3%” value (5 mg, C) was “↑ (↑, <.05)”, the “Stage 3 duration” value (5 mg, C) was “↑ (↑, <.05)” and the “Stage 4%” value (5 mg, C) was “↑↑ (↑↑, <.01)”. For the same molecule, the “Stage 4 duration” value (5 mg, C) was “↑↑ (↑↑, <.01)”, the “SWS 1st third” value (5 mg, D1) was “↑↑ (↑↑, <.01)” and the SWS % (5 mg, D1) was “↑↑ (↑↑, <.01)”. The “Stage 1%” value (5 mg, D1) was “↓ (↓, <.05)”, the “Stage 2%” value (5 mg, D1) was “↓ (↓, <.05)” and the “Stage 3%” value (5 mg, D1) was “↑ (↑, <.05)”. For the same molecule, the “Stage 3 duration” value (5 mg, D1) was “↑ (↑, <.05)”, the “Stage 4%” value (5 mg, D1) was “↑↑ (↑↑, <.01)” and the “Stage 4 duration” value (5 mg, D1) was “↑↑ (↑↑, <.01)”. For the same molecule, the “SWS 1st third” value (5 mg, D13) was “↑ (↑, <.05)”, the “SWS 2nd third” value (5 mg, D13) was “↑ (↑, <.05)” and the SWS % (5 mg, D13) was “↑↑ (↑↑, <.01)”. The “Stage 4%” value (5 mg, D13) was “↑↑ (↑↑, <.01)”, the “Stage 4 duration” value (5 mg, D13) was “↑↑ (↑↑, <.01)” and the “Change in Slow Wave Sleep From Baseline” value (5 mg, Day 1) was 37.3 min. For the same molecule, the “Change … Percentage” value (5 mg, Day 1) was 65%, the “Duration (min) of wake after sleep onset” value (5 mg, Day 1) was 64.56 min and the “Number of awakenings after sleep onset” value (5 mg, Day 1) was 20.67. For the same molecule, the SWS duration (5 mg, Day 1) was 94.89 min, the “Change in Slow Wave Sleep From Baseline” value (5 mg, Day 13) was 41.9 min and the “Change … Percentage” value (5 mg, Day 13) was 73%. The “Duration (min) of wake after sleep onset” value (5 mg, Day 13) was 43.89 min, the “Number of awakenings after sleep onset” value (5 mg, Day 13) was 21.78 and the SWS duration (5 mg, Day 13) was 99.56 min. The “duration and proportion of wake after sleep onset” value (20 mg) was “decreased”, the NREM sleep % (20 mg, C) was “↑↑ (↑↑, <.01)” and the NREM sleep duration (20 mg, C) was “↑ (↑, <.05)”. The “SWS 1st third” value (20 mg, C) was “↑↑ (↑↑, <.01)”, the “SWS 2nd third” value (20 mg, C) was “↑↑ (↑↑, <.01)” and the SWS % (20 mg, C) was “↑↑ (↑↑, <.01)”. The “Stage 2 duration” value (20 mg, C) was “↓ (↓, <.05)”, the “Stage 3%” value (20 mg, C) was “↑ (↑, <.05)” and the “Stage 3 duration” value (20 mg, C) was “↑ (↑, <.05)”. The “Stage 4%” value (20 mg, C) was “↑↑ (↑↑, <.01)”, the “Stage 4 duration” value (20 mg, C) was “↑↑ (↑↑, <.01)” and the “SWS 2nd third” value (20 mg, D1) was “↑↑ (↑↑, <.01)”. For the same molecule, the SWS % (20 mg, D1) was “↑↑ (↑↑, <.01)”, the “Stage 2 duration” value (20 mg, D1) was “↓ (↓, <.05)” and the “Stage 4%” value (20 mg, D1) was “↑↑ (↑↑, <.01)”. The “Stage 4 duration” value (20 mg, D1) was “↑↑ (↑↑, <.01)”, the NREM sleep % (20 mg, D13) was “↑↑ (↑↑, <.01)” and the “SWS 2nd third” value (20 mg, D13) was “↑↑ (↑↑, <.01)”. The SWS % (20 mg, D13) was “↑↑ (↑↑, <.01)”, the “Stage 4%” value (20 mg, D13) was “↑↑ (↑↑, <.01)” and the “Stage 4 duration” value (20 mg, D13) was “↑↑ (↑↑, <.01)”. The “Change in Slow Wave Sleep From Baseline” value (20 mg, Day 1) was 46.0 min, the “Change … Percentage” value (20 mg, Day 1) was 55% and the “Duration (min) of wake after sleep onset” value (20 mg, Day 1) was 33.44 min. The “Number of awakenings after sleep onset” value (20 mg, Day 1) was 20.89, the SWS duration (20 mg, Day 1) was 129.94 min and the “Change in Slow Wave Sleep From Baseline” value (20 mg, Day 13) was 39.0 min. The “Change … Percentage” value (20 mg, Day 13) was 46%, the “Duration (min) of wake after sleep onset” value (20 mg, Day 13) was 29.89 min and the “Number of awakenings after sleep onset” value (20 mg, Day 13) was 18.89. For the same molecule, the SWS duration (20 mg, Day 13) was 122.94 min, the “REM sleep duration, proportion of REM sleep, REM sleep latency, REM activity or REM density” value (in words) was “no effect” and the “latency to sleep onset” value (in words) was “did not alter”. For the same molecule, the “number of awakenings after sleep onset, drug to placebo contrasts” value (the 4 doses, most significant in 2.5 mg and 5 mg groups) was “significantly decreased”.
